Literature values in patent publication US6641611B2, “Therapeutic coating for an intravascular implant” (priority 2001, dated 2003).
Like-named read-outs stand apart in the source and are kept apart here.

Key:
[1] = for diabetes: high doses

increase in rapamycin levels in combination compared to rapamycin alone (monkeys, fixed doses of both drugs in combination): 5 fold
diabetes ([1]; nonhuman primates): not
diabetes ([1]; rats): causes diabetes
Compound: CO[C@H]1C[C@@H]2CC[C@@H](C)[C@@](O)(O2)C(=O)C(=O)N2CCCC[C@H]2C(=O)O[C@H]([C@H](C)C[C@@H]2CC[C@@H](O)[C@H](OC)C2)CC(=O)[C@H](C)/C=C(\C)[C@@H](O)[C@@H](OC)C(=O)[C@H](C)C[C@H](C)/C=C/C=C/C=C/1C [rapamycin]
tolerability (fixed high dose monotherapy): well tolerated
body weight effect ([1]; several species): weight loss
